Measured values as given in US11427548B2 (Arvinas Operations, Inc., priority 2015, dated 2022).
Where two headings read alike, the source gives them in different places.

How the values were obtained:
Androgen Receptor [1] = biological target: T1, Androgen Receptor (Homo sapiens, UniProt P10275+P40337, T878A); assay: Androgen Receptor ELISA assay (PathScan AR ELISA) in LNCaP cells: AR degradation, Dmax and DC50; assay type: cell-based; conditions: for DC50: concentration that caused 50% Androgen Receptor degradation
T1 construct: Compounds have been evaluated in this assay in LNCaP and/or VCaP cells utilizing similar protocols; endogenous in cells; host or cells: LNCaP cells

Androgen Receptor [2] = biological target: T2, Androgen Receptor (Homo sapiens, UniProt P10275); assay: Androgen Receptor ELISA assay (PathScan AR ELISA) in VCaP cells: AR degradation, Dmax and DC50; assay type: cell-based
T2 construct: endogenous in cells; host or cells: VCaP cells
T2 sequence (P10275 1-920): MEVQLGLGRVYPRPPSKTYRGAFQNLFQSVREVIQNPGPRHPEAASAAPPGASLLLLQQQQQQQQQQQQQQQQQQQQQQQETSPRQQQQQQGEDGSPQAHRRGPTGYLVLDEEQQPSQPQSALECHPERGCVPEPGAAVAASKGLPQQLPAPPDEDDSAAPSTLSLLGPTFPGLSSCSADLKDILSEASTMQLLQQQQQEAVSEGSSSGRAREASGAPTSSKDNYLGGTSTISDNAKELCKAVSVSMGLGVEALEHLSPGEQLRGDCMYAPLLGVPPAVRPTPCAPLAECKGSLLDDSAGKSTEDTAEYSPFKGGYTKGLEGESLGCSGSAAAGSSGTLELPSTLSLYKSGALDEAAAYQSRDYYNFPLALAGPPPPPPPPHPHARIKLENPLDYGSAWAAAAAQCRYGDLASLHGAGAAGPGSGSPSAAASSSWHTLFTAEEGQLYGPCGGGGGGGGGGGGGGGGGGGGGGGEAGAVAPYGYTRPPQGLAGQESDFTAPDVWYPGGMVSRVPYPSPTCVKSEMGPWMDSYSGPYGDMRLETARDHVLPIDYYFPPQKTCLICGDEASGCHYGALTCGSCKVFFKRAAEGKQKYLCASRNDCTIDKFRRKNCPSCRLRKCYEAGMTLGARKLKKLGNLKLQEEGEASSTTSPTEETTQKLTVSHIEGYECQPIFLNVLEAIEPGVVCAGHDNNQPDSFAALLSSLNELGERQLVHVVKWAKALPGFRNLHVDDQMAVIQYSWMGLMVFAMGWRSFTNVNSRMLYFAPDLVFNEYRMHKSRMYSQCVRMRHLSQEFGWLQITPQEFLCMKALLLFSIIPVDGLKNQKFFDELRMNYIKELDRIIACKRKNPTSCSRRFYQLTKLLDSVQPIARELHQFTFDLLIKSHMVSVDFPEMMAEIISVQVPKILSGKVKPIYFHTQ
How it was run: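 VCaP cells in phenol red-free RPMI with 5% charcoal-stripped FBS were grown at least 3 days, then given compound as 7 half-log doses in 0.1% DMSO with 0.1 nM R1881 for 24 h. Lysates went into a sandwich AR ELISA with TMB read at 450 nm.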

[3] = highest percentage of Androgen Receptor degradation observed
[4] = read-out: VCaP DC50; concentration that caused 50% Androgen Receptor degradation, VCaP cells
[5] = highest percentage of Androgen Receptor degradation
[6] = read-out: VCaP DC50; VCaP cells; concentration that caused 50% Androgen Receptor degradation
[7] = concentration that caused 50% Androgen Receptor degradation, VCaP cells; read-out: VCaP DC50

T1 sequence (P10275 whole entry T878A): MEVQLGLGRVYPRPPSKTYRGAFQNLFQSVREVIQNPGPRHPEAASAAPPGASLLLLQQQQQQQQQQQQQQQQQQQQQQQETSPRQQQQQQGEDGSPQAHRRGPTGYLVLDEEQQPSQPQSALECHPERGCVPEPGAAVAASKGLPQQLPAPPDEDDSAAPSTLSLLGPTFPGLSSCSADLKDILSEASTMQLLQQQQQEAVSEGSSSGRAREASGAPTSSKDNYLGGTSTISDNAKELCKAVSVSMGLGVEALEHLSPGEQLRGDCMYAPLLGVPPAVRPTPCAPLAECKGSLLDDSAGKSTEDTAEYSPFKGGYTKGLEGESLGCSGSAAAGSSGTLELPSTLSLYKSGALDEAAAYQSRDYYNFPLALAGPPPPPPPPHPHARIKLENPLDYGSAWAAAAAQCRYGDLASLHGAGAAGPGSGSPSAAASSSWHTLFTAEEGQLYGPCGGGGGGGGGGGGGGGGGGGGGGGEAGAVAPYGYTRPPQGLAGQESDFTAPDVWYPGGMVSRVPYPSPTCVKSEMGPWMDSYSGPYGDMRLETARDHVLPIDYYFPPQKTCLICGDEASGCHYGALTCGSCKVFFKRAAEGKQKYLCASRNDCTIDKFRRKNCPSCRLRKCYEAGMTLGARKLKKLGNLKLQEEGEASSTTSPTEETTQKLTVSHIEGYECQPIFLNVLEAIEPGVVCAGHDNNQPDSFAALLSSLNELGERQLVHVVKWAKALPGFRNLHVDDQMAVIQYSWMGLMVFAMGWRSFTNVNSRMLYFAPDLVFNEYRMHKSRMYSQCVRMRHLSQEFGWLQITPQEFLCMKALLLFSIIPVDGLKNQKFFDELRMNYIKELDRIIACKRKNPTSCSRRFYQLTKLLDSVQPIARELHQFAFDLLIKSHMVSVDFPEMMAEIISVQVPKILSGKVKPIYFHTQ
T1 sequence (P40337 whole entry): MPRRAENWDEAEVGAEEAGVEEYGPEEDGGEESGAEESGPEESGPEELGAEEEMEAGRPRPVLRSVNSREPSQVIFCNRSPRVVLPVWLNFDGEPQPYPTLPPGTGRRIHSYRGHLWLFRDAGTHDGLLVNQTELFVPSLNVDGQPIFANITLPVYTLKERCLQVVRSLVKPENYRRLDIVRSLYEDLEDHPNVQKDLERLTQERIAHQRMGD
T1 sequence (Q15369 whole entry partner): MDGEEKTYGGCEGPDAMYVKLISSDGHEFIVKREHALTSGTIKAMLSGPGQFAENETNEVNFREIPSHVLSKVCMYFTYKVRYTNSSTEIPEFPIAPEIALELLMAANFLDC
T1 sequence (Q15370 whole entry partner): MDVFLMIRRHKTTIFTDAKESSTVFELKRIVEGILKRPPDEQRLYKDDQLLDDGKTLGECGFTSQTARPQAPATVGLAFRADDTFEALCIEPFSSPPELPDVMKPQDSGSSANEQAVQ

Structure (SMILES)	DC50 (Androgen Receptor [1]) [nM]	Dmax (Androgen Receptor [1]; [3]) [%]	Dmax (Androgen Receptor [2]; VCaP, read-out: VCaP Dmax (%)) [%]	DC50 (Androgen Receptor [2]; [4]) [nM]	Dmax (Androgen Receptor [1]; [5]) [%]	DC50 (Androgen Receptor [2]; [6]) [nM]	LNCaP Dmax (%) (Androgen Receptor [1]; [3])	DC50 (Androgen Receptor [2]; [7]) [nM]	VCaP Dmax (%) (Androgen Receptor [2]; highest percentage of Androgen Receptor degradation observed, VCaP cells)	Dmax (Androgen Receptor [2]; VCaP, highest percentage of Androgen Receptor degradation observed, VCaP cells; read-out: VCaP Dmax (%)) [%]
Cc1ncsc1-c1ccc([C@H](C)NC(=O)[C@@H]2C[C@@H](O)CN2C(=O)[C@@H](NC(=O)COCCCOCCCCCOc2ccc(N3C(=S)N(c4ccc(C#N)c(C(F)(F)F)c4)C(=O)C3(C)C)cc2F)C(C)(C)C)cc1 [Example 10, (2S,4R)-1-[(2S)-2-[2-(3-{[5-(4-{3-[4-cyano-3-(trifluoromethyl)phenyl]-5,5-dimethyl-4-oxo-2-sulfanylideneimidazolidin-1-yl}-2-fluorophenoxy)pentyl]oxy}propoxy)acetamido]-3,3-dimethylbutanoyl]-4-hydroxy-N-[(1S)-1-[4-(4-methyl-1,3-thiazol-5-yl)phenyl]ethyl]pyrrolidine-2-carboxamide]	< 50	> 71	51 to 70	< 50	–	–	–	–	–	–
Cc1ncsc1-c1ccc(CNC(=O)[C@@H]2C[C@@H](O)CN2C(=O)[C@@H](NC(=O)COCCCCCOCCCOc2ccc(N3C(=S)N(c4ccc(C#N)c(C(F)(F)F)c4)C(=O)C3(C)C)cc2)C(C)(C)C)cc1 [Example 295]	< 50	–	26 to 50	–	> 71	< 50	–	–	–	–
Cc1ncsc1-c1ccc(CNC(=O)[C@@H]2C[C@@H](O)CN2C(=O)[C@@H](NC(=O)COCCOCCCCCOc2ccc(N3C(=S)N(c4ccc(C#N)c(C(F)(F)F)c4)C(=O)C3(C)C)cc2)C(C)(C)C)cc1 [Example 247]	< 50	–	> 71	–	> 71	< 50	–	–	–	–
Cc1ncsc1-c1ccc(CNC(=O)[C@@H]2C[C@@H](O)CN2C(=O)[C@@H](NC(=O)CCCOCCOc2ccc(-c3ccc(N4C(=S)N(c5ccc(C#N)c(C(F)(F)F)c5)C(=O)C4(C)C)cc3)cc2)C(C)(C)C)cc1 [Example 260]	51 to 500	–	26 to 50	–	> 71	< 50	–	–	–	–
Cc1ncsc1-c1ccc(CNC(=O)[C@@H]2C[C@@H](O)CN2C(=O)[C@@H](NC(=O)COCCCOCCCCOc2ccc(N3C(=S)N(c4ccc(C#N)c(C(F)(F)F)c4)C(=O)C3(C)C)cc2F)C(C)(C)C)cc1 [Example 27, (2S,4R)-1-[(2S)-2-(2-{3-[4-(4-{3-[4-cyano-3-(trifluoromethyl)phenyl]-5,5-dimethyl-4-oxo-2-sulfanylideneimidazolidin-1-yl}-2-fluorophenoxy)butoxy]propoxy}acetamido)-3,3-dimethylbutanoyl]-4-hydroxy-N-{[4-(4-methyl-1,3-thiazol-5-yl)phenyl]methyl}pyrrolidine-2-carboxamide]	< 50	> 71	> 71	< 50	–	–	–	–	–	–
Cc1ncsc1-c1ccc(CNC(=O)[C@@H]2C[C@@H](O)CN2C(=O)[C@@H](NC(=O)COCCOCCOc2ccc(-c3ccc(N4C(=S)N(c5ccc(C#N)c(C(F)(F)F)c5)C(=O)C4(C)C)cc3F)cc2)C(C)(C)C)cc1 [Example 73, (2S,4R)-1-[(2S)-2-[2-(2-{2-[4-(4-{3-[4-cyano-3-(trifluoromethyl)phenyl]-5,5-dimethyl-4-oxo-2-sulfanylideneimidazolidin-1-yl}-2-fluorophenyl)phenoxy]ethoxy}ethoxy)acetamido]-3,3-dimethylbutanoyl]-4-hydroxy-N-{[4-(4-methyl-1,3-thiazol-5-yl)phenyl]methyl}pyrrolidine-2-carboxamide]	< 50	> 71	51 to 70	< 50	–	–	–	–	–	–
Cc1ncsc1-c1ccc(CNC(=O)[C@@H]2C[C@@H](O)CN2C(=O)[C@@H](NC(=O)COCCCOCCOc2cccc(-c3ccc(N4C(=S)N(c5ccc(C#N)c(C(F)(F)F)c5)C(=O)C4(C)C)cc3)c2)C(C)(C)C)cc1 [Example 288]	< 50	–	26 to 50	–	> 71	< 50	–	–	–	–
Cc1ncsc1-c1ccc([C@H](C)NC(=O)[C@@H]2C[C@@H](O)CN2C(=O)[C@@H](NC(=O)COCCOCCOc2ccc(-c3ccc(N4C(=S)N(c5ccc(C#N)c(C(F)(F)F)c5)C(=O)C4(C)C)cc3F)cc2)C(C)(C)C)cc1 [Example 79, (2S,4R)-l-[(2S)-2-[2-(2-{2-[4-(4-{3-[4-cyano-3-(trifluoromethyl)phenyl]-5,5-dimethyl-4-oxo-2-sulfanylideneimidazolidin-1-yl}-2-fluorophenyl)phenoxy]ethoxy}ethoxy)acelamido]-3,3-dimethylbutanoyl]-4-hydroxy-N-[(1S)-l-[4-(4-methyl-l,3-thiazol-5-yl)phenyl]ethyl]pyrrolidine-2-carboxamide]	< 50	–	–	–	–	–	++++ (71% ≤ Dmax)	< 50	+++ (51% ≤ Dmax ≤ 70%)	–
Cc1ncsc1-c1ccc(CNC(=O)[C@@H]2C[C@@H](O)CC2C(=O)[C@H](C(C)C)N2Cc3ccccc3C2=O)c(OCCOC2CCCC[C@@H]2OCCOc2ccc(N3C(=S)N(c4ccc(C#N)c(C(F)(F)F)c4)C(=O)C3(C)C)cc2)c1 (stereo partly drawn) [Example 297]	> 501	–	26 to 50	–	26 to 50	–	–	–	–	–
COc1cc(N2C(=O)C(C)(C)N(c3ccc(OCCCCOCCCOCC(=O)N[C@H](C(=O)N4C[C@H](O)C[C@H]4C(=O)NCc4ccc(-c5scnc5C)cc4)C(C)(C)C)cc3)C2=S)ccc1C#N [Example 32, (2S,4R)-1-[(2S)-2-{2-[3-(4-{4-[3-(4-cyano-3-methoxyphenyl)-5,5-dimethyl-4-oxo-2-sulfanylideneimidazolidin-1-yl]phenoxy}butoxy)propoxy]acetamido}-3,3-dimethylbutanoyl]-4-hydroxy-N-{[4-(4-methyl-1,3-thiazol-5-yl)phenyl]methyl}pyrrolidine-2-carboxamide]	< 50	> 71	–	–	–	–	–	< 50	–	51 to 70
Cc1ncsc1-c1ccc(CNC(=O)[C@@H]2C[C@@H](O)CN2C(=O)[C@@H](NC(=O)COCCCOCCC(C)(C)CCOc2ccc(N3C(=S)N(c4ccc(C#N)c(C(F)(F)F)c4)C(=O)C3(C)C)cc2)C(C)(C)C)cc1 [Example 12, (2S,4R)-1-[(2S)-2-[2-(3-{[5-(4-{3-[4-cyano-3-(trifluoromethyl)phenyl]-5,5-dimethyl-4-oxo-2-sulfanylideneimidazolidin-1-yl}phenoxy)-3,3-dimethylpentyl]oxy}propoxy)acetamido]-3,3-dimethylbutanoyl]-4-hydroxy-N-{[4-(4-methyl-1,3-thiazol-5-yl)phenyl]methyl}pyrrolidine-2-carboxamide]	51 to 500	> 71	26 to 50	< 50	–	–	–	–	–	–
Cc1ncsc1-c1ccc(CNC(=O)[C@@H]2C[C@@H](O)CN2C(=O)[C@@H](NC(=O)COCCCOc2ccc(-c3ccc(N4C(=S)N(c5ccc(C#N)c(C(F)(F)F)c5)C(=O)C4(C)C)cc3)cc2)C(C)(C)C)cc1 [Example 77]	< 50	> 71	51 to 70	< 50	–	–	–	–	–	–
Cc1ncsc1-c1ccc(CNC(=O)[C@@H]2C[C@@H](O)CN2C(=O)[C@@H](NC(=O)COCCCCCNC(=O)CCCc2ccc(N3C(=S)N(c4ccc(C#N)c(C(F)(F)F)c4)C(=O)C3(C)C)cc2)C(C)(C)C)cc1 [Example 63, (2S,4R)-1-[(2S)-2-[2-({5-[4-(4-{3-[4-cyano-3-(trifluoromethyl)phenyl]-5,5-dimethyl-4-oxo-2-sulfanylideneimidazolidin-1-yl}phenyl)butanamido]pentyl}oxy)acetamido]-3,3-dimethylbutanoyl]-4-hydroxy-N-{[4-(4-methyl-1,3-thiazol-5-yl)phenyl]methyl}pyrrolidine-2-carboxamide]	51 to 500	> 71	26 to 50	< 50	–	–	–	–	–	–
